The target of one data set is CDK7 CyclinH (Homo sapiens, UniProt P50613). The data set is described as follows: CDK inhibition assay (microfluidic LabChip, IC50 format). Type of data set: biochemical. The conditions noted are these: Table 4a.
For a further data set, the target named is T1, CDK6-CYCLIND3 (Homo sapiens, UniProt Q00534).
T1 construct: purchased Carna
Described as above. In kind it is biochemical.

A further data set addresses T2, CDK9-CYCLINT1 (Homo sapiens, UniProt P50750).
T2 construct: purchased Carna
Described as above. In kind it is biochemical.

The subject of the next data set is all cell lines tested. Description: 2D cell proliferation assay, geometric mean over the cell line panel. Type of data set: cell-based. The conditions noted are these: Table 5 lower part; geometric mean over the 8-line panel; read-out: Geomean abs. IC50 value. The procedure: (§1) Viability of the cells was analyzed by using the CellTiter-Blue® Cell Viability Assay (Promega), and was performed according to manufacturer's instructions. Briefly, cells were harvested from exponential phase cultures (Chapter 6.6), counted and plated in 96-well flat-bottom microtiter plates at a cell density of 4,000-60,000 cells/well in a volume of 140 μl per well. After a 24 hours recovery period, 10 μL cell culture medium (six control wells/plate) or culture medium with test compound were added (Chapter 6.2). The compounds were applied at five concentrations in full-log increments up to 100 μM in duplicate. Cultures were incubated at 37° C. and 5% CO2 in a humidified atmosphere for another three days. After three days of treatment, 20 μl/well CellTiter-Blue® reagent was added. Following incubation with CellTiter-Blue® reagent for up to four hours, fluorescence (FU) was measured by using the Enspire Multimode Plate Reader (excitation λ=570 nm, emission λ=600 nm). For calculations, the mean values of duplicate/sextuplicate (untreated control) data were used.
(§2) IC values are reported as relative IC50 values and absolute IC50 and IC70 values. […] The absolute IC70 value gives the concentration of the test compound that achieves T/C=30%. The relative IC50 value is the concentration of test compound that gives a response halfway between the top and bottom plateau of the sigmoidal concentration-response curve (inflection point of the curve). Calculation was done by 4parameter non-linear curve fit (Oncotest Data Warehouse Software).
(§3) If an IC50 or IC70 value could not be determined within the examined dose range (because a compound was either too active or lacked activity), the lowest or highest concentration studied was used for calculation of the geometric mean value.
The overall potency of a compound was determined by the geometric mean IC50/IC70 values of all individual IC50/IC70 values. In the heatmap representation of IC50 and IC70 values, the distribution of the IC50 or IC70 values obtained for a test compound in the individual cell lines is given in relation to the geometric mean IC50 or IC70 value, obtained over all PDX models tested. The individual IC values range from 1/32-fold geometric mean IC (corresponding to very potent compound activity or high tumor sensitivity) to 32-fold geometric mean IC (corresponding to lack of compound activity or tumor resistance). The heatmap presentation, therefore, represents an antiproliferative “fingerprint” profile of a test compound.

A further data set concerns the target T3, CDK2-CYCLINA (Homo sapiens, UniProt P24941).
T3 construct: purchased Millipore
Description: CDK inhibition assay (microfluidic LabChip, IC50 format). In kind it is biochemical.

The next data set has as its target CDK4-CYCLIND1 (Homo sapiens, UniProt P11802). The description is as above.
Another data set deals with MAXFTN MDA-MB-231 (ER−). The data set is described as follows: 2D cell proliferation assay (CellTiter-Blue). Type of data set: cell-based. The conditions noted are these: Homo sapiens, 72 h, three days of treatment, read-out: abs. IC50. The method, then:
as §1
(§4) An assay was considered fully evaluable if the following quality control criteria were fulfilled: • control/background ratio>3.0-Z′-factor calculated within the assay plate>0.5 [7]—coefficient of variation in the growth control wells <30%
(§5) Drug effects were expressed in terms of the percentage of the fluorescence signal, obtained by comparison of the mean signal in the treated wells with the mean signal of the untreated controls (expressed by the test-versus-control value, T/C-value [%]):
as §2, §3
On the technique in general: The colour change of resazurin is a common sign of viable cells or microbes.

The test system of the next data set is MEXF WM-266-4. The data set is described as follows: 2D cell proliferation assay (CellTiter-Blue). Type of data set: cell-based. The conditions noted are these: Homo sapiens, 72 h, three days of treatment, read-out: abs. IC50. The procedure: as §1, §4, §5, §2, §3
The next data set concerns LXFA A549. Description: 2D cell proliferation assay (CellTiter-Blue). In kind it is cell-based. Particulars: Homo sapiens, 72 h, three days of treatment, read-out: abs. IC50. The procedure: as §1, §4, §5, §2, §3
The next data set has as its system LXFL NCl-H1299. Description: 2D cell proliferation assay (CellTiter-Blue). In kind it is cell-based. Particulars: 72 h, three days of treatment, read-out: abs. IC50. The procedure:
as §1, §4, §5, §2, §3

The test system of a further data set is MAXFTN ZR-75-1 (ER+). The data set is described as follows: 2D cell proliferation assay (CellTiter-Blue). In kind it is cell-based. The conditions noted are these: Homo sapiens, 72 h, three days of treatment, read-out: abs. IC50. The procedure:
as §1, §4, §5, §2, §3

A further data set has as its system MAXFLB MCF7 (ER+). Description: 2D cell proliferation assay (CellTiter-Blue). In kind it is cell-based. The conditions noted are these: Homo sapiens, 72 h, three days of treatment, read-out: abs. IC50. The procedure: as §1, §4, §5, §2, §3
Another data set deals with LEXFAM MV4-11. Description: 2D cell proliferation assay (CellTiter-Blue). Type of data set: cell-based. The conditions noted are these: Homo sapiens, 72 h, three days of treatment, read-out: abs. IC50. The method, then: as §1, §4, §5, §2, §3
The test system of the next data set is LEXFAL MOLT-4. Description: 2D cell proliferation assay (CellTiter-Blue). Type of data set: cell-based. The conditions noted are these: Homo sapiens, 72 h, three days of treatment, read-out: abs. IC50. The method, then:
as §1, §4, §5, §2, §3

The nature of data set [1]: Pharmacokinetics after IV bolus. In kind it is in vivo. The conditions noted are these: rat, plasma; rats; IV bolus 30 mg/kg; N = 3.
Description: (§6) Nonclinical pharmacokinetic (PK) parameters of lead CDK4/6/9 inhibitors were determined in an intravenous (IV) and oral study (p.o.) conducted in rats. Lead compounds were each administered as a single oral dose at 100 mg/kg or by IV bolus via the caudal vein at the dose of 30 mg/kg. Blood samples were collected at 0.25, 0.5, 1, 2, 4, 8, 12, and 24 hours post i.v. administration, and at 1, 2, 4, 8, 24 and 48 hours post oral administration. Plasma was processed for drug concentration analysis using a validated LCMS/MS method, and PK parameters were calculated by using WinNonlin.
The nature of data set [2]: Pharmacokinetics after oral administration. In kind it is in vivo. The conditions noted are these: rat, plasma, rats.
Description: as §6
For another data set, the target named is T4, CDK2-CYCLINE (Homo sapiens, UniProt P24941).
T4 construct: purchased Millipore
The data set is described as follows: CDK inhibition assay (microfluidic LabChip, IC50 format). In kind it is biochemical. The conditions noted are these: Table 3; purified enantiomers; read-out: CDK2-E (E1/E2).

Setting [3] is: Table 3, purified enantiomers, read-out: CDK6 (E1/E2).
[4] abbreviates: Table 3, purified enantiomers, read-out: CDK9-T (E1/E2).
The mark [5] stands for this setting: Table 3, purified enantiomers, read-out: CDK2-A (E1/E2).
Setting [6] is: CDK4 (E1/E2), Table 3, purified enantiomers.
The mark [7] stands for this setting: oral administration 100 mg/kg, N = 3.

Values joined by “and” are separate entries in the source; they are usually repeats but may differ in a detail not shown here. Equal values may be shown once. Read-outs that look alike come from different tables or passages of the source. Bounds are passed on as bounds.

A word on the Cmax: it is the maximum level reached in the sampled fluid or tissue. As usually defined, the clearance is the volume of plasma or blood freed of the substance per unit of time. Read a high clearance as a high capacity for elimination. Broadly, the half-life is the time needed for the level to fall by half in the phase considered. Low readings indicate rapid decline, high ones slow decline. A word on the bioavailability: it is the share of a dose that reaches the circulation, judged against a reference dose that is usually intravenous. The AUC is concentration integrated over time. Low readings indicate low exposure, high ones high exposure. As a reminder, the MRT is a mean duration of stay, worked out from the concentration-time curve.

CDK4-CYCLIND1, sequence (P11802 whole entry): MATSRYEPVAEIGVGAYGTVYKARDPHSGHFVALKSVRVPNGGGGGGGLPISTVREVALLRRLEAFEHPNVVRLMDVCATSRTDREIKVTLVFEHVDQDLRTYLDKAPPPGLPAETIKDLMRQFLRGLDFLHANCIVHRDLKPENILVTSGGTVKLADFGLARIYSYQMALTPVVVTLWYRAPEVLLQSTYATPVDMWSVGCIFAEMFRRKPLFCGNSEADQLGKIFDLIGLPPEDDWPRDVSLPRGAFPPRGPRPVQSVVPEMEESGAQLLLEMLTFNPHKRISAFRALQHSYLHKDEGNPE
CDK4-CYCLIND1, sequence (P24385 whole entry partner): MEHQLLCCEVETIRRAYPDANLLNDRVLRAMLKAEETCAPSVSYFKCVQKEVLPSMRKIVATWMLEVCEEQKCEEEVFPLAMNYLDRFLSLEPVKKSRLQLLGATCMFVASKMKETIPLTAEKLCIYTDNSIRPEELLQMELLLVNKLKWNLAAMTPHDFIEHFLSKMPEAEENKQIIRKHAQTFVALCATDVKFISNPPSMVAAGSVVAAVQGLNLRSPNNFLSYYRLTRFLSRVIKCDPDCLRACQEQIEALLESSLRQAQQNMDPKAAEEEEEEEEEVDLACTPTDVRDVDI
T1 sequence (Q00534 whole entry): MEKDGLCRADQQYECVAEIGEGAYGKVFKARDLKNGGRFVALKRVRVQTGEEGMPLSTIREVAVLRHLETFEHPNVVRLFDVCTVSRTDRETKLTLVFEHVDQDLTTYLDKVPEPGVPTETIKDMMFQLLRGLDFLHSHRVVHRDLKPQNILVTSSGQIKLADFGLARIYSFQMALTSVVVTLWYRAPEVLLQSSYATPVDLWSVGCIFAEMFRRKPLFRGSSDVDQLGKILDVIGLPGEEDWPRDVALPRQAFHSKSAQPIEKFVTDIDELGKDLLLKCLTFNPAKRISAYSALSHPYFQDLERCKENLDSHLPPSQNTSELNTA
T1 sequence (P30281 whole entry partner): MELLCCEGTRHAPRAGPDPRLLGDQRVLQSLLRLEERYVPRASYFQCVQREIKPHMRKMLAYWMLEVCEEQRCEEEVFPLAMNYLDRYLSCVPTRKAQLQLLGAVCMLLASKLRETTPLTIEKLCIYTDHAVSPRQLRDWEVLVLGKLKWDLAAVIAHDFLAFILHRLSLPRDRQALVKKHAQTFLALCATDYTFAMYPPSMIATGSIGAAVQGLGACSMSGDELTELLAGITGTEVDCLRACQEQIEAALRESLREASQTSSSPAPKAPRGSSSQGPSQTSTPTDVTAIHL
T2 sequence (P50750 whole entry): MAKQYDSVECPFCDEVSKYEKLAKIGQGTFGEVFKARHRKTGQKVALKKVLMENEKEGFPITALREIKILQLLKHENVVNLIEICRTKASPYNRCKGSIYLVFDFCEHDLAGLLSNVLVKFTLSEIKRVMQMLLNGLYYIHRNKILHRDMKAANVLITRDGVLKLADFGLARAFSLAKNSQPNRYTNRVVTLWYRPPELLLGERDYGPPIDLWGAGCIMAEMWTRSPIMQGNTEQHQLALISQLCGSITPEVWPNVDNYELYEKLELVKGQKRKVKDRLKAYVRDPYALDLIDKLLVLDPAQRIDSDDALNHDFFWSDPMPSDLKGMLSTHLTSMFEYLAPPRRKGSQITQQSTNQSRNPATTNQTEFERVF
T2 sequence (O60563 whole entry partner): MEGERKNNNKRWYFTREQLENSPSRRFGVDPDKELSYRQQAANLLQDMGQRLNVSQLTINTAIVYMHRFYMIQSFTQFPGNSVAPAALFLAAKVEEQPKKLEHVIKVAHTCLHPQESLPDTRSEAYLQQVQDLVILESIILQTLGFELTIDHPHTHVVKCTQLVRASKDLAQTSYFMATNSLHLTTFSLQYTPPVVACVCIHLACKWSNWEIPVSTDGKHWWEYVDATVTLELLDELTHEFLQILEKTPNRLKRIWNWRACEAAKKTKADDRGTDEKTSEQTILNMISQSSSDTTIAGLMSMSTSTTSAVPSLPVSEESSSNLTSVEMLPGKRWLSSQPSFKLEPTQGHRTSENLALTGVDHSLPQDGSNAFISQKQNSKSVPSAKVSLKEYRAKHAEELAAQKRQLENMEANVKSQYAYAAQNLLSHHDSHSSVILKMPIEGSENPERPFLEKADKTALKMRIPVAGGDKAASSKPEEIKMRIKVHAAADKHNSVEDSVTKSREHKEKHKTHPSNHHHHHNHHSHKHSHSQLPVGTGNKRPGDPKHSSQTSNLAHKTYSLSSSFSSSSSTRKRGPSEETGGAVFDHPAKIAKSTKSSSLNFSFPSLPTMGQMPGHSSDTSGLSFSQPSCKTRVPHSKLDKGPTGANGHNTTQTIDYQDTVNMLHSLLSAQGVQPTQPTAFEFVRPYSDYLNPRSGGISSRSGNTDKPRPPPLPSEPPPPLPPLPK
CDK7 CyclinH, sequence (P50613 whole entry): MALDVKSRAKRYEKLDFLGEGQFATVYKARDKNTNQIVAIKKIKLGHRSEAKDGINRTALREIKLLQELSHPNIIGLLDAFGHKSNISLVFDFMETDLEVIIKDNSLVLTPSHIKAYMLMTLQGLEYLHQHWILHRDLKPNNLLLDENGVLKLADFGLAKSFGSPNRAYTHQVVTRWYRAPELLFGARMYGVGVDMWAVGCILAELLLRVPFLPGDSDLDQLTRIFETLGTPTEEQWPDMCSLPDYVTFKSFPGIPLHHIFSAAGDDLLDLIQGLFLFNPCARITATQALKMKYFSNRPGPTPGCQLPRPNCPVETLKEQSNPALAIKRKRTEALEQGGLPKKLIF
CDK7 CyclinH, sequence (P51946 whole entry partner): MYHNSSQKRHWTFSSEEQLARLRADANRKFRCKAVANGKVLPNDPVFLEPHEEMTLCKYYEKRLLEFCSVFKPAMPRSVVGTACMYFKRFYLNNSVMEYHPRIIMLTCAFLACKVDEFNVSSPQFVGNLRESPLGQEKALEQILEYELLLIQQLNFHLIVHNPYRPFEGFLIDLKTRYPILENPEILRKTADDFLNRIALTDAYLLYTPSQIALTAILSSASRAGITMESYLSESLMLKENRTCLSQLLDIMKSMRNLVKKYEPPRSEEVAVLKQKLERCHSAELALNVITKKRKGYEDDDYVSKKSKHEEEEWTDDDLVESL
CDK7 CyclinH, sequence (P51948 whole entry partner): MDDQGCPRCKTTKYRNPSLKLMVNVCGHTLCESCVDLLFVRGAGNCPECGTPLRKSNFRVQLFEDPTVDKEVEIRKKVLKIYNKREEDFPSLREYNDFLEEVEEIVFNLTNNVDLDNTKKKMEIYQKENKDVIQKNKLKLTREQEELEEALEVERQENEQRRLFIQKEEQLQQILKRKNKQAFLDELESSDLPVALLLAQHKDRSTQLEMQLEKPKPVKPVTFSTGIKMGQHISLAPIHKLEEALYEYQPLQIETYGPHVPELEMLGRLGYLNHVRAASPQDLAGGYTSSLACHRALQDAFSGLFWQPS

Turning to `CN(C)[C@@H]1CCN(c2ccc(Nc3ncc4c(n3)N(C3CCCC3)C(=O)[C@]3(CCNC3=O)C4)cc2F)C1` [Example D176, (S)-8-cyclopentyl-2-((4-((R)-3-(dimethylamino)pyrrolidin-1-yl)-3-fluorophenyl)amino)-5,8-dihydro-7H-spiro[pyrido[2,3-d]pyrimidine-6,3′-pyrrolidine]-2′,7-dione], the IC50 was 126 nM at CDK7 CyclinH; 2.07 nM on CDK6-CYCLIND3 (Table 4a, read-out: CDK6 CyclinD3 IC50); 2.73 nM at CDK9-CYCLINT1 (Table 4a, read-out: CDK9 CyclinT1 IC50); 179 nM in the data set with all cell lines tested; 33.3 nM on CDK2-CYCLINA (Table 4a, read-out: CDK2 CyclinA IC50); 1.12 nM and 0.64 nM on CDK4-CYCLIND1 (CDK4 CyclinD1 IC50, Table 4a, a second value in parentheses for some compounds). In addition, the IC50 in the data set with MAXFTN MDA-MB-231 (ER−) is 172 nM; with MEXF WM-266-4, 548 nM; in the data set with LXFA A549 it was 440 nM; with LXFL NCl-H1299, 229 nM; with MAXFTN ZR-75-1 (ER+), 648 nM; in the data set on MAXFLB MCF7 (ER+), 62 nM. The IC50 in the data set with LEXFAM MV4-11 was found to be 28 nM; in the data set on LEXFAL MOLT-4, 97 nM.
On to `CN1CCN(c2ccc(Nc3ncc4c(n3)N(C3CCCC3)C(=O)[C@]3(CCNC3=O)C4)cc2F)CC1` [Example D52, (S)-8-cyclopentyl-2-((3-fluoro-4-(4-methylpiperazin-1-yl)phenyl)amino)-5,8-dihydro-7H-spiro[pyrido[2,3-d]pyrimidine-6,3′-pyrrolidine]-2′,7-dione], for which the IC50 at CDK6-CYCLIND3 (setting [3]) was found to be 1.94 nM; at CDK9-CYCLINT1 (setting [4]), 5.75 nM; in the data set on all cell lines tested, 184 nM; at CDK2-CYCLINA (setting [5]), 53.1 nM; at CDK4-CYCLIND1 (setting [6]), 0.904 nM; on CDK2-CYCLINE it was 101 nM. In addition, the IC50 with MAXFTN MDA-MB-231 (ER−) stood at 318 nM; in the data set on MEXF WM-266-4 it was 509 nM; in the data set on LXFA A549, 257 nM; in the data set on LXFL NCl-H1299 it was 151 nM; in the data set on MAXFTN ZR-75-1 (ER+), 925 nM; in the data set on MAXFLB MCF7 (ER+), 122 nM. Moreover, in the data set with LEXFAM MV4-11, the IC50 is ≤ 10 nM. In addition, the results for the maximum concentration (Cmax) in [1] and in data set [2] (setting [7]) were 6360 ng/mL and 4350 ng/mL, respectively. The molecule further showed a clearance in data set [1] of 19.3 mL/min/kg. For the same molecule, the results for the half-life in [1] and in data set [2] (setting [7]) were 4.45 h and 7.1 h, respectively. Besides, in data set [2] (oral 100 mg/kg versus IV 30 mg/kg, read-out: BIOAVAILABILITY F), the bioavailability is 43.9%. Also, the AUC in [2] (setting [7]) is 37700 ng·h/mL. Moreover, the MRT in data set [2] (setting [7]) amounted to 5.48 h.
On to `CC(C)N1CCN(c2ccc(Nc3ncc4c(n3)N(C3CCCC3)C(=O)[C@]3(CCNC3=O)C4)cc2F)CC1` [Example D54, (S)-8-cyclopentyl-2-((3-fluoro-4-(4-isopropylpiperazin-1-yl)phenyl)amino)-5,8-dihydro-7H-spiro[pyrido[2,3-d]pyrimidine-6,3′-pyrrolidine]-2′,7-dione], for which the IC50 at CDK6-CYCLIND3 (setting [3]) stood at 1.65 nM; in the data set on all cell lines tested, 352 nM; at CDK2-CYCLINA (setting [5]), 45.6 nM; on CDK4-CYCLIND1 (setting [6]), 0.822 nM; at CDK2-CYCLINE, 106 nM; in the data set with MEXF WM-266-4, 331 nM. The IC50 in the data set with LXFA A549 stood at 1400 nM; in the data set on LXFL NCl-H1299, 212 nM; in the data set on MAXFTN ZR-75-1 (ER+) it was 10300 nM; in the data set with MAXFLB MCF7 (ER+), 188 nM; in the data set with LEXFAM MV4-11 it was 10 nM.
As to `O=C1NCC[C@]12Cc1cnc(Nc3ccc(N4CCNCC4)c(F)c3)nc1N(C1CCCC1)C2=O` [Example D49, (R)-8-cyclopentyl-2-((3-fluoro-4-(piperazin-1-yl)phenyl)amino)-5,8-dihydro-7H-spiro[pyrido[2,3-d]pyrimidine-6,3′-pyrrolidine]-2′,7-dione], the IC50 amounted to 360 nM on CDK6-CYCLIND3 (setting [3]); 1240 nM on CDK9-CYCLINT1 (setting [4]); 3410 nM at CDK2-CYCLINA (setting [5]); 136 nM against CDK4-CYCLIND1 (setting [6]); 5660 nM at CDK2-CYCLINE.

(Values after patent US20230048132A1, “CYCLIN-DEPENDENT KINASE INHIBITORS” (SPV THERAPEUTICS INC., priority 2018, published 2023).)
